Results reported in patent publication US7803792B2, “Quaternary ammonium compounds” (Asahi Kasei Pharma Corporation, priority 2002, dated 2010).

Tested on: Na+ dependent amino acid transporter
Test: In vitro assay on Na+ dependent amino acid transporter using Cos 7 cells (Test Example 10)
Format: cell-based
Details: [3H] alanine 8 μM, 37° C., 60 minutes, read-out: IC50 (μM) against alanine transporter
Protocol: In Vitro Assay of Effects of Compounds on Na^+ Dependent Amino Acid Transporter and Na^+ Dependent Water-Soluble Vitamin Transporter Using Cos 7 Cells
In this test example, the in vitro assays of the compound on various transporters using Cos 7 cells were carried out according to the method described in Published Translation of Japanese Patent Application No.10-503830.
That is, […] of Cos 7 cells were inoculated on a 24-well cell plate. Two days later, the cells were washed once with an assay buffer, Hank's buffer solution containing 25 mM glucose and with 10 mM HEPES (ph 7.4), and then the buffer was replaced by an assay buffer to which the test compound was added. After adding to this, [^3H] alanine (trade name; NET-348, manufactured by DAIICHI CHEMICAL CO., LTD.), [^3H] leucine (trade name: NET-460, manufactured by DAIICHI CHEMICAL CO., LTD.), [^3H] phenylalanine (trade name: MT903, MORAVEK), [^3H] methionine (trade name: MT862, MORAVEK), [^3H] lysine (trade name: MT909, MORAKEK), or [^3H] choline (trade name: TRK593, […] BIOSCIENCES CO., LTD.) to a final concentration of 8 μM, the mixture was incubated at 37° C. for 60 minutes to allow Cos 7 cells to incorporate them. […] Measurement of the radioactivity was carried out by introducing the lyzate in 4 ml of liquid scintillation cocktail, stirring the mixture well, and then measuring on a liquid scintillation counter. […]

CCCCC1(CCCC)CS(=O)(=O)c2ccc(N(C)C)cc2C(c2cccc(NC(=S)CCCCC[N+]34CCC(CC3)CC4)c2)N1.[Br-] (stereo not shown) [Example 1, 1-{5-[3-(3,3-Dibutyl-7-dimethylamino-1,1-dioxo-2,3,4,5-tetrahydro-1,4-benzothiazepin-5-yl)phenylthiocarbamoyl]pentyl}-1-azoniabicyclo[2.2.2]octane bromide]
IC50: 33 µM
